Biological target: T1, PDE6 partially purified from bovine retinal rod and activated by trypsin (Bos taurus, UniProt P11541+P23439)
T1 construct: from tissue; host or cells: bovine retinal rod
T1 sequence (P11541 2-856 limits assumed): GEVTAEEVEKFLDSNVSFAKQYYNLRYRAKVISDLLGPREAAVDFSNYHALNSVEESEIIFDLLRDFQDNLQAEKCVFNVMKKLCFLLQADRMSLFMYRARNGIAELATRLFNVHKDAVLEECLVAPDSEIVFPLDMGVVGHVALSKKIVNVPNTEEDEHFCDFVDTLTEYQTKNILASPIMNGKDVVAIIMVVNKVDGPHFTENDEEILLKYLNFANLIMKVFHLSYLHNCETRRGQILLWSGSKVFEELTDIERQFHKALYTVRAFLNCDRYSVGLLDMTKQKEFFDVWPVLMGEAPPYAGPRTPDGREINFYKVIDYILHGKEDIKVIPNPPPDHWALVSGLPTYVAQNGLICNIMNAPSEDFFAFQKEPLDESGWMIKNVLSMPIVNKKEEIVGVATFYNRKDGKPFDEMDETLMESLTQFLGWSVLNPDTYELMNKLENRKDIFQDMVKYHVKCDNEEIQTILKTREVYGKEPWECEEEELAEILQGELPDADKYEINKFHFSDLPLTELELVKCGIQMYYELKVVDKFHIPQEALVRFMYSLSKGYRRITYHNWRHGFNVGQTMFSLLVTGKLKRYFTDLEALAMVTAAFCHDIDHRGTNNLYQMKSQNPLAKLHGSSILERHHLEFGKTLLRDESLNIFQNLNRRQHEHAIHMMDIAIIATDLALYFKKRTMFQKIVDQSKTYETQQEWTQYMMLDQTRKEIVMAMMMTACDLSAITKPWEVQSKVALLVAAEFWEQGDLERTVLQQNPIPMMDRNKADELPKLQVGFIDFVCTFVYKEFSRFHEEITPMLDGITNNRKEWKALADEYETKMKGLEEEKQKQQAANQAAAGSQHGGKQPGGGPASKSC
T1 sequence (P23439 2-850 limits assumed): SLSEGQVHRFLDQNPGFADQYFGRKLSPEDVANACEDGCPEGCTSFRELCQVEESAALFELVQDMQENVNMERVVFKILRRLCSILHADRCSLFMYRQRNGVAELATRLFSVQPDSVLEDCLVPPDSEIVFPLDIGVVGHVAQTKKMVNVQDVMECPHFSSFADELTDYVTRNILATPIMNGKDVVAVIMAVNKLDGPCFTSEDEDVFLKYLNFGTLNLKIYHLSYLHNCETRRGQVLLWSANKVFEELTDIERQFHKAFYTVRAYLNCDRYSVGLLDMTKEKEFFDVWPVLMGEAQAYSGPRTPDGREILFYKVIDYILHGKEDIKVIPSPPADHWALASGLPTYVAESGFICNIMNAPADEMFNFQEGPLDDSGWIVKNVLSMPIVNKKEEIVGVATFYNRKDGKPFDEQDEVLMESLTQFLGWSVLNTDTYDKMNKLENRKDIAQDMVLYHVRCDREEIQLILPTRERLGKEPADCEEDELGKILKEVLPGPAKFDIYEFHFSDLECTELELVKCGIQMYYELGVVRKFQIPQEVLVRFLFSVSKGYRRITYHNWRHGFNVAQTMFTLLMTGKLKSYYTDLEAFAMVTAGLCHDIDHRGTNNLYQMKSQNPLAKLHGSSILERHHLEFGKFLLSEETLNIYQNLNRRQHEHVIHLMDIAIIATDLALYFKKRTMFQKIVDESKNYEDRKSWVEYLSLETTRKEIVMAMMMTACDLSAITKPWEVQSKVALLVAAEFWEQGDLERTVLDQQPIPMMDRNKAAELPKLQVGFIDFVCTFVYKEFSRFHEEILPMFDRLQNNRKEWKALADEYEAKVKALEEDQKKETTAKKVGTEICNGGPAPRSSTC
Test: PDE6 biochemical enzyme assay ([3H]cGMP hydrolysis, scintillation counting)
Settings: Example 2; versus Viagra 0.3 μM
Protocol: PDE6 partially purified from bovine retinal rod and activated by trypsin was used. […] Each reaction was terminated by raising the temperature to 100° C. for 2 minutes. The resulting GMP was converted to guanosine by addition of 10 mg/ml snake venom nucleotidase and further incubated at 30° C. for 10 minutes. Unhydrolyzed cGMP was bound to AGI-X2 resin, and [^3H]guanosine remaining in the aqueous phase was quantitated by scintillation counting.

Cn1cc([S+](C)[O-])c(=O)c2ccc(F)cc21 (racemic) [Flosequinan, 7-fluoro-1-methyl-3-methylsulphinyl-4-quinolone]
times more compound on a molar basis than Viagra for such levels of PDE6 inhibition: more than 300 times

From patent US6995173B2, “Methods for the treatment of central nervous system disorders in certain patient groups” (R.T. Alamo Ventures I, LLC, priority 2001, dated 2006)
